{
  "source": "paper PMC6624297",
  "about": "(Cell Death & Disease, 2019)",
  "key": {"human TS (hTS)": {"biological_target": "T1, human TS (hTS) (Homo sapiens, UniProt P04818)", "T1 construct": "purchased ProSpec-Tany", "T1 sequence (P04818 whole entry)": "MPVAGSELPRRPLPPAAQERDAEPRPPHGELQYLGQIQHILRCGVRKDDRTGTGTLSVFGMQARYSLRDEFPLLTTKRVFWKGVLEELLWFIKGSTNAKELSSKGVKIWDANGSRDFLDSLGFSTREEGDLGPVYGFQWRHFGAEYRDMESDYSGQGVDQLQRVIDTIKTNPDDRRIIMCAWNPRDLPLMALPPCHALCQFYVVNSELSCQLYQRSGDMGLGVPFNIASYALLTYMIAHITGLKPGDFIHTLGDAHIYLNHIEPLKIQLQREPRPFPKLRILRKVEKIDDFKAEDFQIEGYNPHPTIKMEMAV", "assay": "Thymidylate synthase (TS) spectrophotometric assay", "type": "biochemical", "details": "averages from triplicate assays", "method": "Recombinant human thymidylate synthase purchased from ProSpec-Tany Company. TS was assayed spectrophotometrically at 30 °C and pH 7.4 in a mixture containing 0.1 M 2-mercaptoethanol, 0.0003 M (6R,S)-tetrahydrofolate, 0.012 M formaldehyde, 0.02 M MgCl2, 0.001 M dUMP, 0.04 M Tris–HCl, 30 nM hTS, and 0.00075 M NaEDTA. […] The reaction was initiated by the addition of an amount of enzyme yielding a change in absorbance at 340 nm of 0.016/min in the absence of inhibitor."}, "EGFR kinase": {"biological_target": "EGFR kinase (Homo sapiens, UniProt P00533)", "sequence (P00533 25-1210)": "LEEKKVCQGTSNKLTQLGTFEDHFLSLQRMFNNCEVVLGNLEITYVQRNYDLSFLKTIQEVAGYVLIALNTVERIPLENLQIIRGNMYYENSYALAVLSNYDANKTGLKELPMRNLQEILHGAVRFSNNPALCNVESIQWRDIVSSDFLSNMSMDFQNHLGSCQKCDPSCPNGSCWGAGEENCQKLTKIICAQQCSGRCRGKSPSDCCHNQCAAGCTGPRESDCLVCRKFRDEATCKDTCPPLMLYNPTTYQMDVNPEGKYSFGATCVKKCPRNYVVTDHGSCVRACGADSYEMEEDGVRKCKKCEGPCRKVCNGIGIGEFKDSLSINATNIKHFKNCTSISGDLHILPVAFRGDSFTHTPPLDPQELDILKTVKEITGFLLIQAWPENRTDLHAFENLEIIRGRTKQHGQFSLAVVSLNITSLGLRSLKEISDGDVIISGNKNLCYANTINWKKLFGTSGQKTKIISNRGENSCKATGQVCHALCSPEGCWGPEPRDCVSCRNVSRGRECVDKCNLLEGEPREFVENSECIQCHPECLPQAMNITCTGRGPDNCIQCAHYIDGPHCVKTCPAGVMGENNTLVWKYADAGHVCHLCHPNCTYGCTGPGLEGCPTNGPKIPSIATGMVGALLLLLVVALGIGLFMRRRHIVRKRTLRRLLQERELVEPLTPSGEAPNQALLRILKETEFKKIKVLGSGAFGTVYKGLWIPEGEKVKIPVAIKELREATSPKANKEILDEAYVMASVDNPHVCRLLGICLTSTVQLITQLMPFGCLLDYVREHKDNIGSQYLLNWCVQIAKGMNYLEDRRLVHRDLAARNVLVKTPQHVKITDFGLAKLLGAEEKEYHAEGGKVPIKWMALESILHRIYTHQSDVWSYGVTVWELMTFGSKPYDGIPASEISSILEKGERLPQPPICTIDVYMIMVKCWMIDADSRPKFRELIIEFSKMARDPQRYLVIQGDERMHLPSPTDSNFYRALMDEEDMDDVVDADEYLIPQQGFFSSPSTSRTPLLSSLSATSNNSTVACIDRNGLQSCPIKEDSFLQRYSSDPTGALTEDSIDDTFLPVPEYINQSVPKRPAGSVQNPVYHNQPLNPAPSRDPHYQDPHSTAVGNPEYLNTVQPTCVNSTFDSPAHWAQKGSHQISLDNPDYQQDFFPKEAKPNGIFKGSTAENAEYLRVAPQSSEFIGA", "assay": "ADP-Glo kinase assay, EGFR", "type": "biochemical", "details": "averages from triplicate assays", "method": "The ADP-Glo™ kinase assay (Promega, Madison, WI) was used to screen target compounds for their inhibition effects for BRaf, EGFR kinase. The kinase assay was carried out in a 96-well plate, in a volume of 25 μL HEPES (pH 7.3) solvent containing 1.6 μg/mL EGF, and 20 ng of EGFR kinase, or 50 ng BRaf kinase, and 10 μM ATP (Promega, Madison, WI). […] Reactions in each well were started immediately by adding ATP and kept going for half an hour under 30 °C in a constant temperature incubator (Bluepard, Shanghai, China). After the plate cooled for 5 min at room temperature, 25 μl of ADP-Glo reagent was added into each well to stop the reaction and consume the remaining […] within 40 min. At the end, 50 μl of kinase detection reagent was added into the well and incubated for 1 h to produce a luminescence signal."}, "A549 cells [1]": {"system": "A549 cells", "assay": "MTT assay A549", "type": "cell-based, human", "method": "(§1) Details are given in Supplementary Materials and Methods. Using probability unit and weighted regression method to calculate the IC50 value of compounds.\n(§2) Total cells in the logarithmic growth phase were collected, digested using 0.25% pancreatic enzymes, and then diluted into single-cell suspensions using phosphate-buffered solution (PBS). These cells were seeded into 96-well plates at 4× 10^3-5× 10^3 cells per well (100 µL per well) and then A549, H460, OVCAR-3, SGC7901, MDA-MB-231, HCT116 and HepG2 were cultured at 37°Cin an incubator containing 5% CO2. After cell complete attachment, 100 µL of different concentrations of compounds (0.625 μM, 1.25 μM, 2.5μM, 5 μM, 10 μM) were added to the cells after the nutrient solution in each well was discarded, while no compound except 0.1% DMSO was added to cells in the control group; at the same time, each concentration was set up to 5 wells. In addition, 5 wells in each 96-well plate only received 100 µL of nutrient solution as a blank control. The plates were taken out after the cells were incubated with compounds for 24 h, and 20 µL of MTT solution (5 mg/mL) (Wuhan Boster Biotechnology Limited Company, Wuhan, China; item No. AR1156) was added into all the wells. After another time of incubation for 4 h at 37 °C, the nutrient solution in each well was discarded slowly, and 150 µL of DMSO was added to each well. The plates were shaken on a shaking table for 20 min. When the crystals were fully dissolved, the blank wells were used to zero the plate reader. The optical density (OD) of each well was detected at 490 nm. The IC50 value was determined as the concentration of the inhibitor that caused 50% inhibition. Using probability unit and weighted regression method to calculate the IC50 value of compounds."}, "OVCAR-3 cells": {"system": "OVCAR-3 cells", "assay": "MTT assay OVCAR-3", "type": "cell-based", "details": "Homo sapiens, 24h of treatment, mean ± SD", "method": "as §1, §2"}, "HCoEpiC cell line": {"system": "HCoEpiC cell line", "assay": "Selectivity index against HCoEpiC", "type": "cell-based", "details": "SI = CC50/IC50"}, "SK-MES-1 cells": {"system": "SK-MES-1 cells", "assay": "MTT assay SK-MES-1", "type": "cell-based"}, "A549 cells [2]": {"system": "A549 cells", "assay": "Cell cycle PI staining FACS, A549", "type": "cell-based, human", "details": "A549, 0.5, 1.0, 1.5 μM, 24 h", "source_text": "(§3) TS is a crucial enzyme in the DNA synthesis stage. When it is inhibited, first to show cell cycle arrest at G1/S phase. […] Flow cytometry show (Fig. 3), as the concentration of the compound increases, the cells in the G0/G1 phase increase, the cells in the S phase and the G2/M phase decrease. Eventually, the proliferation of cancer cells was inhibited by the G1/S phase arrest of the compound L14e."}, "H460 cells [3]": {"system": "H460 cells", "assay": "Cell cycle PI staining FACS, H460", "type": "cell-based, human", "details": "H460, 0.5, 1.0, 1.5 μM, 24 h", "source_text": "as §3"}, "H460 cells [4]": {"system": "H460 cells", "assay": "Transwell migration and wound healing, H460", "type": "cell-based, human", "details": "H460, 0.5, 1.0, 1.5 μM, 24 h", "method": "Cell migration ability was measured using transwell chambers (8-μm pore size; Corning Costar, Cambridge, MA, USA). For the transwell assay, A549 and H460 cells suspended in serum-free RPMI-1640 medium containing different concentrations of L14e (0, 0.5, 1.0, and 1.5 μM) were seeded into the upper chamber. The lower chamber contained RPMI-1640 medium supplemented with 20% serum. After 24 h incubation, the filters were fixed in methanol and stained with 0.1% crystal violet. The upper faces of the filters were gently abraded, and the lower faces with cells migrated across the filters were imaged and counted under the microscope. For wound healing assays, cells were placed into 6-well plates and cultured until 100% confluence. An artificial scratch was created using a 200 μL pipette tip. Add serum-free RPMI-1640 medium containing different concentrations of drugs. At 24 h after culturing in serum-free medium, wound closure images were captured in the same field under magnification. Cell healing rates were calculated by the fraction of cell coverage across the line. These experiments were performed in triplicate and repeated three times."}, "[5]": {"assay": "HPLC analysis of stability in cell culture medium", "type": "physicochemical", "method": "The HPLC system consisted of e2695 Separations Module pump coupled to a 2489 UV/Visible detector (Waters Corp., Milford, MA, USA). Chromatograms was achieved on a Waters BDS C18 column (200 mm × 4.6 mm, 5 um). Detection was performed at a wavelength of 260 nm at 37 °C. The mobile phase consisted of 0.1% phosphoric acid water /methanol (50/50, v/v) at a flow rate of 1.0 mL/min. A10 µL of sample was injected. The results are loaded in the supplemental file."}},
  "data": [
    {"smiles": "O=C(Nc1cccc(Cl)c1)Nc1ccccc1NS(=O)(=O)c1c[nH]c(=O)[nH]c1=O", "note": "[Compound L14e, N'-(3-chlorophenyl)-2-(2,4-dihydroxypyrimidine-5-sulfonamido)phenyl urea]", "values": [
      {"measurement": "IC50", "setting": "human TS (hTS)", "value": 1060, "unit": "nM"},
      {"measurement": "IC50", "setting": "EGFR kinase", "value": 1920, "unit": "nM"},
      {"measurement": "anti-proliferative potency relative to PTX, A549", "setting": "A549 cells [1]", "value": "nearly five times higher"},
      {"measurement": "IC50", "setting": "A549 cells [1]; Homo sapiens, A549, 24h of treatment, mean ± SD", "value": "670 ± 220", "unit": "nM"},
      {"measurement": "IC50", "setting": "OVCAR-3 cells", "value": "1680 ± 310", "unit": "nM"},
      {"measurement": "SI (Selectivity index) HCoEpiC", "setting": "HCoEpiC cell line", "value": 9.40},
      {"measurement": "inhibition of SK-MES-1 cells", "setting": "SK-MES-1 cells", "value": "did not inhibit"},
      {"measurement": "effect on cell cycle", "setting": "A549 cells [2]", "value": "arrest the cell cycle in the G1/S phase"},
      {"measurement": "effect on cell cycle", "setting": "H460 cells [3]", "value": "arrest the cell cycle in the G1/S phase"},
      {"measurement": "effect on cell migration", "setting": "H460 cells [4]", "value": "significantly inhibited the migration"},
      {"measurement": "HPLC-UV Measure Concentration", "setting": "[5]; nominal 0.625 µM, 1h", "value": "0.621 ± 0.005", "unit": "µM"},
      {"measurement": "HPLC-UV Measure Concentration", "setting": "[5]; nominal 0.625 µM, 12h", "value": "0.623 ± 0.001", "unit": "µM"},
      {"measurement": "HPLC-UV Measure Concentration", "setting": "[5]; nominal 0.625 µM, 24h", "value": "0.625 ± 0.002", "unit": "µM"},
      {"measurement": "HPLC-UV Measure Concentration", "setting": "[5]; nominal 0.625 µM, 36h", "value": "0.625 ± 0.001", "unit": "µM"},
      {"measurement": "HPLC-UV Measure Concentration", "setting": "[5]; nominal 1.25 µM, 1h", "value": "1.246 ± 0.005", "unit": "µM"},
      {"measurement": "HPLC-UV Measure Concentration", "setting": "[5]; nominal 1.25 µM, 12h", "value": "1.239 ± 0.003", "unit": "µM"},
      {"measurement": "HPLC-UV Measure Concentration", "setting": "[5]; nominal 1.25 µM, 24h", "value": "1.253 ± 0.007", "unit": "µM"},
      {"measurement": "HPLC-UV Measure Concentration", "setting": "[5]; nominal 1.25 µM, 36h", "value": "1.242 ± 0.009", "unit": "µM"},
      {"measurement": "HPLC-UV Measure Concentration", "setting": "[5]; nominal 2.5 µM, 1h", "value": "2.510 ± 0.020", "unit": "µM"},
      {"measurement": "HPLC-UV Measure Concentration", "setting": "[5]; nominal 2.5 µM, 12h", "value": "2.506 ± 0.021", "unit": "µM"},
      {"measurement": "HPLC-UV Measure Concentration", "setting": "[5]; nominal 2.5 µM, 24h", "value": "2.430 ± 0.002", "unit": "µM"},
      {"measurement": "HPLC-UV Measure Concentration", "setting": "[5]; nominal 2.5 µM, 36h", "value": "2.483 ± 0.050", "unit": "µM"},
      {"measurement": "HPLC-UV Measure Concentration", "setting": "[5]; nominal 5 µM, 1h", "value": "5.001 ± 0.010", "unit": "µM"},
      {"measurement": "HPLC-UV Measure Concentration", "setting": "[5]; nominal 5 µM, 12h", "value": "4.963 ± 0.005", "unit": "µM"},
      {"measurement": "HPLC-UV Measure Concentration", "setting": "[5]; nominal 5 µM, 24h", "value": "5.012 ± 0.023", "unit": "µM"},
      {"measurement": "HPLC-UV Measure Concentration", "setting": "[5]; nominal 5 µM, 36h", "value": "4.980 ± 0.020", "unit": "µM"},
      {"measurement": "HPLC-UV Measure Concentration", "setting": "[5]; nominal 10 µM, 1h", "value": "10.000 ± 0.049", "unit": "µM"},
      {"measurement": "HPLC-UV Measure Concentration", "setting": "[5]; nominal 10 µM, 12h", "value": "9.908 ± 0.100", "unit": "µM"},
      {"measurement": "HPLC-UV Measure Concentration", "setting": "[5]; nominal 10 µM, 24h", "value": "9.930 ± 0.100", "unit": "µM"},
      {"measurement": "HPLC-UV Measure Concentration", "setting": "[5]; nominal 10 µM, 36h", "value": "9.850 ± 0.150", "unit": "µM"}
    ]}
  ]
}
